Experimental findings from patent US12091398B2, “PD-L1 antagonist compound” (ADLAI NORTYE BIOPHARMA CO., LTD., priority 2019, dated 2024) are described below.

For this test, the system named is PD-1/PD-L1 interaction. The test is described as follows: Cell based PD-1/PD-L1 NFAT reporter assay. Also on record: species or system human. Particulars: Homo sapiens, PD-1/NFAT-Reporter-Jurkat cells co-cultured with TCR activator/PD-L1-CHO cells, 6 hour incubation, luciferase, calibrated to Atezolizumab 10 nM, read-out: Absolute EC50. Summed up:
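Compounds preincubated 30 min on TCR activator/PD-L1 CHO cells seeded overnight, then co-cultured 6 h with PD-1/NFAT-luciferase Jurkat cells; luminescence read by ONE-Glo. Percent inhibition normalised to 0.1% DMSO vehicle and to atezolizumab (10 nM) as positive control.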
A general note: A reporter such as luciferase makes a cellular process visible.

Where two headings read alike, the source gives them in different places.

One may read the EC50 as the concentration needed to bring the measured effect to its halfway point.

As to `COc1cc(Cn2nnc3c(-c4cccc(-c5ccc(CNC[C@@H]6CCC(=O)N6)cc5)c4Cl)cccc32)c(Cl)cc1CN[C@@H](CO)C(=O)O` [Compound 92, (5-chloro-4-((4-(2-chloro-4′-(((((S)-5-oxopyrrolidin-2-yl)methyl)amino)methyl)-[1,1′-biphenyl]-3-yl)-1H-benzo[d][1,2,3]triazol-1-yl)methyl)-2-methoxybenzyl)-L-serine], for the setting “6 h”, the EC50 was found to be 0.416 µM.

Turning to `COc1cc(Cn2cnc3c(-c4cccc(-c5ccc(CNC[C@@H]6CCC(=O)N6)cc5)c4Cl)cccc32)c(Cl)cc1CN[C@@H](CO)C(=O)O` [Compound 93, (5-chloro-4-((4-(2-chloro-4′-(((((S)-5-oxopyrrolidin-2-yl)methyl)amino)methyl)-[1,1′-biphenyl]-3-yl)-1H-benzo[d]imidazol-1-yl)methyl)-2-methoxybenzyl)-L-serine], the EC50 (6 h) is 2.13 µM.

Consider `CN1CCC2(CC1)CCN(Cc1cccc(-c3cccc4c3cnn4Cc3cc(OCc4cncc(C#N)c4)c(CN[C@@H](CO)C(=O)O)cc3Cl)c1Cl)CC2` [Compound 94, (5-chloro-4-((4-(2-chloro-3-((9-methyl-3,9-diazaspiro[5.5]undecan-3-yl)methyl)phenyl)-1H-indazol-1-yl)methyl)-2-((5-cyanopyridin-3-yl)methoxy)benzyl)-L-serine], for which the EC50 (6 h) is > 10 µM.

With `CN1CCC2(CC1)CCN(C(=O)c1cccc(-c3cccc4c3cnn4Cc3cc(OCc4cncc(C#N)c4)c(CN[C@@H](CO)C(=O)O)cc3Cl)c1Cl)CC2` [Compound 95, (5-chloro-4-((4-(2-chloro-3-(9-methyl-3,9-diazaspiro[5.5]undecane-3-carbonyl)phenyl)-1H-indazol-1-yl)methyl)-2-((5-cyanopyridin-3-yl)methoxy)benzyl)-L-serine], the EC50 (6 h) is > 10 µM.

Consider `CN1CCC2(CC1)CCN(c1cccc(-c3cccc4c3cnn4Cc3cc(OCc4cncc(C#N)c4)c(CN[C@@H](CO)C(=O)O)cc3Cl)c1Cl)CC2` [Compound 96, (5-chloro-4-((4-(2-chloro-3-(9-methyl-3,9-diazaspiro[5.5]undecan-3-yl)phenyl)-1H-indazol-1-yl)methyl)-2-((5-cyanopyridin-3-yl)methoxy)benzyl)-L-serine], for which the EC50 was 2.45 µM.
